In patent US20260001915A1, “METHODS FOR TREATING OBESITY WITH AN MC4R AGONIST” (RHYTHM PHARMACEUTICALS, INC., priority 2022, published 2026):

Columns and labels:
[1] = Phase 2 hypothalamic obesity study: safety and tolerability (TEAEs, SAEs); format: in vivo, human
Source text: (§1) The secondary endpoints included determination of: • Composite proportion of patients aged ≥6 to <18 years with ≥0.2 reduction of BMI Z-score and patients aged ≥18 years with 5% reduction of body weight from baseline after 16 weeks of setmelanotide • Proportion of patients aged ≥6 to <18 years with ≥0.2 reduction of BMI Z-score from baseline after 16 weeks of setmelanotide • Proportion of patients aged 18 years with 5% reduction of body weight from baseline after 16 weeks of setmelanotide • Change from baseline in waist circumference in patients aged 18 years after 16 weeks of setmelanotide treatment. • Change in hunger in response to 16 weeks of setmelanotide treatment as measured by change from baseline in daily and global hunger scores. • Safety and tolerability assessed by the frequency and severity of AEs, vital signs, and laboratory evaluations. • Change from baseline in metabolic parameters following treatment with setmelanotide, including fasting glucose, HbA1c, lipid profiles (total-, high-density lipoprotein [HDL]-, and low-density lipoprotein [LDL]-cholesterol, triglycerides). • Proportion of patients, regardless of age, with ≥5% body weight loss from baseline after 16 weeks of setmelanotide treatment compared to a historic control of <5% in this patient population. • Change from baseline in BMI, weight, and waist circumference, regardless of age, after 16 weeks of setmelanotide treatment. • Change from baseline in BMI Z-score in patients aged 6 to 12 years and in those aged 6 to <18 years.
All screening evaluations were completed and reviewed to confirm that potential patients meet all eligibility criteria. Exemplary evaluations included a medical history review, physical examination, comprehensive skin examination, measurement of height, weight, waist circumference, body composition assessment, pregnancy test (if applicable), daily hunger questionnaires, global hunger assessment, and evaluation of PHQ-A or PHQ-9, C—SSRS, SF-12 or SF-10, IWQOL, FSH, HbA1c, and fasting lipid panel. Adjustments were made depending upon specific circumstances and in consultation with the investigator. Immediate safety concerns were discussed immediately upon occurrence or awareness to determine if the patient should continue or discontinue study treatment.
The most commonly reported TEAE was nausea (63.6%).

[2] = Phase 2 open-label study of setmelanotide SC daily in patients with hypothalamic obesity: BMI, BMI Z-score, body weight after 16 weeks; format: in vivo, human; conditions: for Weight (kg), Week 16 Actual, Mean (SD): 16 weeks of treatment
Method: This example describes a phase 2 study that seeks to evaluate the change in body weight in response to an exemplary MC4R agonist, e.g., setmelanotide (i.e., SEQ ID NO: 140) administered subcutaneously (SC) daily in patients with hypothalamic obesity (HO).
Setmelanotide, 10 mg/mL in a sterile solution for injection, was provided at 1.0, 2.0, 3.0 mg QD for patients 6 to <16 years of age, and 2.0 to 3.0 mg QD for patients ≥16 years of age.
The primary endpoint of this study was to identify a proportion of patients with ≥5% reduction from baseline in BMI after 16 weeks of setmelanotide treatment compared to a historic control of <5% in this patient population.
as §1
This study describes a Phase 2, multicenter, open-label, proof of concept study designed to assess the effect of setmelanotide on weight loss within a population affected by HO. Approximately 15 patients aged 6 to 40 years, inclusive, were enrolled across approximately 3-5 clinical sites in the United States (US).
Patients who were determined to be eligible, based on Screening assessments, returned to the clinic for the Baseline Visit (Visit 2) and received the first setmelanotide dose. The starting setmelanotide dose was dependent on patient age; however, for all patients, the setmelanotide dose was titrated to a final dose of 3.0 mg/day (initial titration phase), as follows
• Starting at Baseline (Day 1; Visit 2) through approximately Day 14, patients received setmelanotide 1.0 mg/day. • Starting at approximately Day 15 through 28, patients received setmelanotide 2.0 mg/day.
• Starting at Baseline (Day 1; Visit 2) through approximately Day 14, patients received setmelanotide 2.0 mg/day. • Starting at approximately Day 15, patients received setmelanotide 3.0 mg/day; patients continue to receive setmelanotide 3.0 mg/day for 14 weeks.
Patients returned to the study center for Visits 3, 4, and 5 (Weeks 4, 8, and 12, respectively), with each of these visits conducted approximately 4 weeks apart. All patients returned to the study center at Week 16 (Visit 6) and received the last setmelanotide injection. Study endpoints were analyzed at Visit 6.
All patients received open-label setmelanotide in this study. Setmelanotide was provided as a preserved, multidose solution for injection to be administered SC, QD. It was formulated as a 10 mg/mL sterile, preserved, clear to slightly opalescent, colorless to slightly colored solution, practically free of visible particles. […]

[3] = Long-term extension study of setmelanotide, hypothalamic obesity subpopulation; format: in vivo, human
Method: This example describes a long-term extension study of the use of setmelanotide in treating hypothalamic obesity, and further to investigate the safety and tolerability of chronic setmelanotide administration for up to 5 years from initiation of treatment.
Setmelanotide, 10 mg/mL in a sterile solution, QD. Dosing was continued at the dosage of the cessation of the previous setmelanotide trial, (e.g., 3.0 mg QD for most patients enrolled in the setmelanotide trial for treating subjects with hypothalamic obesity), unless a change is determined necessary by the Investigator, e.g., for safety, tolerability, TEAE, SAE, or other concern.
The objective of this study was to examine the long-term safety parameters of chronic, daily subcutaneous setmelanotide injections for a period of up to 5 years. In order to assess this primary endpoint, the occurrence of TEAEs and SAEs were tracked, in addition to other clinical data including any new emergence of injection site reactions, changes in resting heart rate or blood pressure, laboratory workup (e.g., fasting glucose, HbA1c, lipid profiles (total-, high-density lipoprotein [HDL]-, and low-density lipoprotein [LDL]-cholesterol, triglycerides), liver enzymes, changes in physical examination (e.g., weight, BMI, BMI Z-Score), and cardiac changes (e.g., as measured by an electrocardiogram (ECG). […]

[4] = Phase 2 hypothalamic obesity study: daily hunger questionnaire (most hungry last 24 hrs), weekly average of daily most hunger score; format: in vivo, human; conditions: patients ≥12 years of age
Source text: as §1
All screening evaluations were completed and reviewed to confirm that potential patients meet all eligibility criteria. […]
The daily hunger questionnaire as assessed in patients ≥12 years of age also achieved a clinically meaningful diminution quantifying the most hungry the patient has experienced over the last 24 hours, with a mean reduction in the hunger score of −2.66 after 16 weeks. […]

[5] = patients with POMC and LEPR deficiency obesity; cited from earlier work
[6] = clinical trials; cited from earlier work

CC(=O)N[C@@H](CCCNC(=N)N)C(=O)N[C@H]1CSSC[C@@H](C(N)=O)NC(=O)[C@H](Cc2c[nH]c3ccccc23)NC(=O)[C@H](CCCNC(=N)N)NC(=O)[C@@H](Cc2ccccc2)NC(=O)[C@H](Cc2cnc[nH]2)NC(=O)[C@@H](C)NC1=O [setmelanotide, Ac-Arg-c(Cys-D-Ala-His-D-Phe-Arg-Trp-Cys)-NH2]
Safety and tolerability of setmelanotide treatment ([1]; 16 weeks, up to 3.0 mg/day SC): consistent with established data | Incidence of nausea (most commonly reported TEAE) ([1]; eleven patients): 63.6% | Skin hyperpigmentation, e.g., melanocytic naevus, patients reporting ([1]; eleven patients): two of the eleven patients | Patients with at least one treatment emergent adverse event (TEAE) ([1]; eleven patients, related or unrelated to administration): All eleven of the patients | SAE related to Clostridium dificile colitis ([1]; one patient, able to complete the study): classified as severe, but not related to setmelanotide therapy | Weight (kg), Week 16 Actual, Median ([2]; 6-<18 years (N = 9)): 93.07 kg | Weight (kg), Week 16 Change from Baseline, Mean (SD) ([2]; 6-<18 years (N = 9)): -17.83 kg | Weight (kg), Week 16 Change from Baseline, Median ([2]; 6-<18 years (N = 9)): -16.77 kg | Weight, Week 16 Percent Change from Baseline, Mean (SD) ([2]; 6-<18 years (N = 9)): −17.80% | Weight, Week 16 Percent Change from Baseline, Median ([2]; 6-<18 years (N = 9)): −14.12% | Weight (kg), Week 16 Actual, Mean (SD) ([2]; 6-<18 years (N = 9)): 89.98 kg | Mean BMI reduction ([2]; 9 completers at 16 weeks): −19.5% | Mean change in BMI Z score ([2]; FAS set, after 16 weeks): −1.1 point | Weight (kg), Week 16 Actual, Median ([2]; Total (N = 11)): 94.27 kg | Weight (kg), Week 16 Change from Baseline, Mean (SD) ([2]; Total (N = 11)): -15.87 kg | Weight (kg), Week 16 Change from Baseline, Median ([2]; Total (N = 11)): -13.90 kg | Weight, Week 16 Percent Change from Baseline, Mean (SD) ([2]; Total (N = 11)): −15.79% | Weight, Week 16 Percent Change from Baseline, Median ([2]; Total (N = 11)): −13.68% | Weight (kg), Week 16 Actual, Mean (SD) ([2]; Total (N = 11)): 91.22 kg | Mean percent change in body weight ([2]; after 16 weeks of setmelanotide, SD 7.9%): −17.8% | Reduction in BMI Z score ([2]; all patients less than 18 years old, 16 weeks): statistically significant reduction in BMI Z score | Proportion of patients achieving at least a 10% reduction in BMI ([2]; completers (n=9), 16 weeks, p<0.0001): 100% | Proportion of patients achieving greater than or equal to 5% reduction in BMI (primary endpoint) ([2]; full analysis set (n=11), 16 weeks, p<0.0001): 100% | Reduction in weight ([2]; pediatric and adult patients, 16 weeks of daily SC therapy): statistically significant and clinically meaningful reduction in weight | Weight (kg), Week 16 Actual, Median ([2]; ≥18 years (N = 2)): 96.78 kg | Weight (kg), Week 16 Change from Baseline, Mean (SD) ([2]; ≥18 years (N = 2)): -7.02 kg | Weight (kg), Week 16 Change from Baseline, Median ([2]; ≥18 years (N = 2)): -7.02 kg | Weight, Week 16 Percent Change from Baseline, Mean (SD) ([2]; ≥18 years (N = 2)): −6.76% | Weight, Week 16 Percent Change from Baseline, Median ([2]; ≥18 years (N = 2)): −6.76% | Weight (kg), Week 16 Actual, Mean (SD) ([2]; ≥18 years (N = 2)): 96.78 kg | BMI in long-term extension ([3]; 5 patients from the Phase 2 study, additional 3-8 months): all of the patients but one continued to further see reductions in BMI | BMI of the fifth patient (increase in BMI in the extension period) ([3]; relative to BMI at initiation of the Phase 2 study): did not return to his or her original BMI | Weekly average of daily most hunger score, Week 16 Actual, Median ([4]; N 7): 5.67 | Weekly average of daily most hunger score, Week 16 Change from Baseline, Median ([4]; N 7): −1.71 | Weekly average of daily most hunger score (Most Hungry Last 24 hrs), Week 16 Actual, Mean (SD) ([4]; N 7 at Week 16): 4.55 (2.84) | Reduction in hunger [5]: statistically significant and clinically meaningful reduction in hunger | Weight loss [5]: rapid and sustained significant and clinically meaningful weight loss | Effect on blood pressure [6]: has not been shown to adversely affect blood pressure
